Reference: US7026270B2, “Biocidal compounds and their preparation” (Syngenta Crop Protection, Inc., priority 2002, dated 2006)

Key:
Assay type in all cases: in vivo
[1] = test system: Blumeria graminis f.sp. tritici (ERYSGT); test: Foliar fungicidal test on wheat, 6 hour protectant, Blumeria graminis f.sp. tritici; conditions: 100 ppm foliar spray on wheat; inoculated 6 hours after chemical application; banded assessment
Description: (§1) This Example illustrates the fungicidal properties of the compounds of formula (I). The compounds were tested against a variety of foliar fungal diseases of plants. The technique employed was as follows. Plants were grown on an artificial, cellulose based growing medium. The test compounds were individually diluted in reverse osmosis water to a final concentration of 100 ppm in water (that is, 1 mg of compound in a final volume of 10 ml) immediately before use. TWEEN 20 (at a final concentration of 0.05% by volume) was added with the water to improve retention of the spray deposit. TWEEN is a registered trade mark. The compounds were applied to the foliage of the test plants by spraying the plant to maximum droplet retention. […] After chemical application and inoculation, the plants were incubated under high humidity conditions (except those inoculated with Blumeria graminis f.sp. tritici) and then put into an appropriate environment to allow infection to proceed until the disease was ready for assessment. […] However, each individual disease was assessed after the same time period for all compounds. […] The disease level present (the percentage leaf area covered by actively sporulating disease) was assessed visually. For each treatment, the assessed values for all its replicates were meaned to provide mean disease values. Untreated control plants were assessed in the same manner. […]

[2] = test system: Stagonospora Nodorum (LEPTNO); test: Foliar fungicidal test on wheat, 1 day protectant, Stagonospora Nodorum; conditions: 100 ppm foliar spray on wheat; inoculated one day after chemical application; banded assessment
Description: as §1

[3] = test system: Puccinia triticina (PUCCRT); test: Foliar fungicidal test on wheat, 1 day protectant, Puccinia triticina; conditions: 100 ppm foliar spray on wheat; inoculated one day after chemical application; banded assessment
Description: as §1

SMILES | PRCO (Percentage Disease Reduction from Control) ERYSGT 6 hour Protectant [1] | PRCO (Percentage Disease Reduction from Control) LEPTNO 1 day Protectant [2] | PRCO (Percentage Disease Reduction from Control) PUCCRT 1 day Protectant [3]
CO[C@@H]1CO[C@H]2[C@@H](O)[C@H](c3c[nH]c(=O)[nH]c3=O)O[C@@H]2[C@@H]1NC(N)=O (stereo in doubt) [(II), Malayamycin A] | 100 | 100 | 100
NC(=O)N[C@H]1[C@H]2O[C@@H](c3c[nH]c(=O)[nH]c3=O)[C@H](O)[C@@H]2OC[C@H]1O (stereo in doubt) [(III), Desmethylmalayamycin A] | 0 | 99 | 100
